Experimental data from patent publication US20090220435A1, “TIGHT JUNCTION MODULATING PEPTIDE COMPONENTS FOR ENHANCING MUCOSAL DELIVERY OF THERAPEUTIC AGENTS” (priority 2005, published 2009).

Key:
[1] = tested on: in vitro epithelial tissue model (EpiAirway™); assay: Drug permeation (Papp) in the in vitro epithelial tissue model
Excerpt: A. A “kit” of 24 EpiAirway™ units can routinely be employed for evaluating five different formulations, each of which is applied to quadruplicate wells. Each well is employed for determination of permeation kinetics (4 time points), transepithelial electrical resistance (TER). An additional set of wells is employed as controls, which are sham treated during determination of permeation kinetics, but are otherwise handled identically to the test sample-containing units for determinations of transepithelial resistance and viability.
B. In all experiments, the mucosal delivery formulation to be studied is applied to the apical surface of each unit in a volume of 100 μL, which is sufficient to cover the entire apical surface. An appropriate volume of the test formulation at the concentration applied to the apical surface (no more than 100 μL is generally needed) is set aside for subsequent determination of concentration of the active material by ELISA or other designated assay.
D. In order to minimize potential sources of error and avoid any formation of concentration gradients, the units are transferred from one 0.9 mL-containing well to another at each time point in the study. These transfers are made at the following time points, based on a zero time at which the 100 μL volume of test material was applied to the apical surface: 15 minutes, 30 minutes, 60 minutes, and 120 minutes.
F. At the completion of each time point, the medium is removed from the well from which each unit was transferred, and aliquotted into two tubes (one tube receives 700 μL and the other 200 μL) for determination of the concentration of permeated test material and, in the event that the test material is cytotoxic, for release of the cytosolic enzyme, lactate dehydrogenase, from the epithelium. These samples are kept in the refrigerator if the assays are to be conducted within 24 hours, or the samples are subaliquotted and kept frozen at −80° C. until thawed once for assays. Repeated freeze-thaw cycles are to be avoided.
EIA kit (p/n S-1178(EIAH6101) was purchased from Peninsula Laboratories Inc. (Division of BACHEM, San Carlos, Calif., 800-922-1516). 17×120 mm polypropylene conical tubes (p/n 352097, Falcon, Franklin Lakes, N.J.) were used for all sample preparations. Eight standards were used for PTH quantitation. The rest of the assay procedure was the same as the kit inserts.
The instant study was designed to evaluate the effect of PN159 itself or in combination with additional permeation enhancers on PTH permeation. The PN159 concentrations evaluated are 25, 50, and 100 μM. The additional permeation enhancers are 45 mg/ml M-β-CD, 1 mg/ml DDPC, and 1 mg/ml EDTA. Sorbitol was used as a tonicifier (146-190 mM) to adjust the osmolarity of formulations to 220 mOsm/kg. The formulation pH was fixed at 4.5. PTH was chosen as a model peptide in this example. 2 mg/ml PTH was combined with PN159 with or without additional permeation enhancers. The combination was tested using an in vitro epithelial tissue model to monitor PTH permeation, transepithelial electrical resistance (TER), and the cytotoxicity of the formulation by LDH assay.
The concentrations of MC-4RA in the basolateral media was analyzed by the RP-HPLC using a C18 RP chromatography with a flow rate of 1 mL/minute and a column temperature of 25° C. • Solvent A: 0.1% TFA in water; Solvent B: 0.1% TFA in ACN • Injection Volume: 50 μL • Detection: 220 nm • RUN TIME: 15 MIN
Galantamine concentration in the formulation and in the basolateral media (permeation samples) was determined using an isocratic LC (Waters Alliance) method with UV detection. • Column: Waters Symmetry Shield, C18, 5 um, 25×0.46 cm • Mobile phase: 5% ACN in 50 mM ammonium formate, pH 3.0 • Flow rate: 1 ml/min • Column temperature: 30° C. • Calibration curve: 0-400 μg/ml Galantamine HBr • Detection: UV at 285 nm

[2] = tested on: EpiAirway™ human-derived tracheal/bronchial epithelial cells; assay: FITC-dextran / sample permeation across epithelial cell monolayer; assay type: cell-based
Method: A FITC labeled dextran with a molecular weight 3000 (FD3) was used to assess the efficacy of individual TJMP on epithelial cell monolayer permeation. The tissue insert plates were transferred to a 96-well receiver plate containing 200 μl of DPBS++ as basal media. The apical surface of each tissue culture insert was incubated with a 20 μl sample of a single test formulation (refer to Table 24 of Example 25 for details of test formulations) for one hour at 37° C. in the dark on a shaker (˜100 rpm). Following the 1-hour incubation period, underlying basal media samples were taken from each tissue culture insert and temporarily stored in the dark at room temperature until FD3 levels were quantified by fluorescence spectroscopy. For FD3 measurements, a 150 μl of basal media sample was transferred to a black, clear bottom 96-well plate. Fluorescence emission at 528/20 following excitation at 485/20 were measured using a FL×800 fluorescence plate reader from Biotek Instruments.
Each tissue insert will be placed in an individual well containing 1 ml of MatTek basal media. On the apical surface of the inserts, 25 μl of test formulation will be applied according to study design, and the samples will be placed on a shaker (˜100 rpm) for 1.5 h at 37° C. FITC-labeled dextran solution is added to inserts apically and a fluorescence measurement is made from the basolateral media after the incubation period. The concentration of FITC-dextran is expressed as a percent of the starting material applied to the cells. A FITC labeled dextran with a molecular weight 4000 (MW4000) was used to assess cargo size limitations on individual TJMP permeation. Of note, various size FITC-labeled dextrans are available to perform size limitation studies.
Fluorescein isothiocyanate (FITC) labeled Dextrin (MW 3,000) was added to the treatment mixture at 0.1-1 mg/ml. The treatment mixture was added to the side of the apical wall, and the plates were incubated at 37° C. in an orbital shaker (New Brunswick Scientific, Edison, N.J.) for the designated time at 100 rpm. At the end of incubation, triplicates of 200 ul of the basal medium were transferred to a dark-wall fluorescent reading plate. Fluorescent intensity at wavelength 470 nm was measured by a microplate fluorescence reader FLx800 (BIO-TEK INSTRUMENTS, INC, Winooski, Vt.). Serial dilutions of standard were used to obtain a standard curve and calculate the concentration. Permeability was measured in two ways, as the ratio of donor mass (the apical chamber) or as the ratio of acceptor mass (the basal chamber), expressed in percentage.

[3] = tested on: EpiAirway™ human-derived tracheal/bronchial epithelial cells; assay: Transepithelial electrical resistance (TER) across EpiAirway epithelial cell layer; assay type: cell-based
[4] = tested on: EpiAirway™ human-derived tracheal/bronchial epithelial cells; assay: Cytotoxicity (LDH assay); assay type: cell-based
Method: The amount of cell death was assayed by measuring the loss of lactate dehydrogenase (LDH) from the cells using a CytoTox 96 Cytoxicity Assay Kit (Promega Corp., Madison, Wis.). Fifty microliters of sample was loaded into a 96-well assay plates. Fresh, cell-free culture medium was used as a blank. 50 μl of substrate solution was added to each well and the plates incubated for 30 minutes at room temperature in the dark. Following incubation, 50 μl of stop solution was added to each well and the plates read on an optical density plate reader at 490 nm.
The amount of cell death will be assayed by measuring the loss of lactate dehydrogenase (LDH) from the cells using a CytoTox 96 Cytotoxicity Assay Kit (Promega Corp., Madison, Wis.). Fifty microliters of sample will be loaded into a 96-well assay plates. Fresh, cell-free culture medium will be used as a blank. Fifty microliters of substrate solution will be added to each well and the plates incubated for 30 minutes at room temperature in the dark. Following incubation, 50 μl of stop solution will be added to each well and the plates read on an optical density plate reader at 490 nm. The measurement of LDH release into the basolateral media indicates relative cytotoxicity of the samples. One hundred percent lysis of control inserts with 0.3% Octylphenolpoly(ethyleneglycolether)×(TritonX-100) allows LDH values to be expressed as percentage of total lysis.
In some embodiments, The amount of cell death was assayed by measuring the release of lactate dehydrogenase (LDH) from the cells into the apical medium using a CytoTox 96 Cytotoxicity Assay Kit (Promega Corp., Madison, Wis.). One percent Octylphenolpoly (ethyleneglycolether)×(Triton X-100™) diluted in phosphate buffered saline (PBS) causes 100% lysis in cultured cells and served herein as a positive control for the LDH assay. Following the one hour incubation period with a test formulation (refer to Table 24 of Example 25 for details of test formulations), the total liquid volume of each insert was brought to a final volume of 200 μl with culture medium. The apical medium was then mixed by pipetting four times with a multichannel pipette set to a 100 μl volume. After mixing, a 100 μl sample from the apical side of each insert was transferred to a new 96-well plate. The apical media samples were sealed with a plate sealer and stored at room temperature for same day analysis or stored overnight at 4° C. for analysis the next day. To measure LDH levels, 5 μl of the 100 μl apical media sample was diluted in 45 μl DPBS in a new 96-well plate. Fresh, cell-free culture medium will be used as a blank. Fifty microliters of substrate solution was added to each well and incubated for 30 minutes at room temperature away from direct light. Following the 30 minute incubation, 50 μl of stop solution was added to each well. Optical density (OD) was measured at 490 nm with a uQuant absorbance plate reader from Biotek Instruments. The measurement of LDH release into the apical media indicates relative cytotoxicity of the samples. Percent cytotoxicity for each test formulation was calculated by subtracting the measured absorbance of the PBS control (basal level of LDH release) from the measured absorbance of the individual test formulation and then dividing that value by the measured absorbance for the 1% Triton X-100™ positive control, multiplied by 100.
An LDH assay was used to assess the cytotoxicity of the treatments. The LDH level was determined by CytoTox96 Non-Radioactive Cytotoxic Assay (Promega, Madison, Wis.) following the manufacturer's protocol. For basal-lateral LDH levels, triplicates of 50 ul of the basal medium were used to determine the LDH level. For apical LDH level, 150 ul of the diluted apical sample was removed by adding 150 ul of Epi-CM to the apical chamber, the medium was mixed by pipeting up and down, and 150 ul medium was removed and diluted 2× (for a final 8-fold dilution) for assay in triplicates of 50 ul.

[5] = 1000 μM, additional assay (in parenthesis)
[6] = 15 minute treatment at the peptide's optimal concentration
[7] = 60 minute treatment at the peptide's optimal concentration

## CC(C)C[C@H](NC(=O)[C@H](CCCCN)NC(=O)CNC(=O)[C@H](CC(C)C)NC(=O)[C@@H](NC(=O)[C@@H]1CSSC[C@H](N)C(=O)N[C@@H](CO)C(=O)N[C@@H](CC(N)=O)C(=O)N[C@@H](CC(C)C)C(=O)N[C@@H](CO)C(=O)N[C@@H]([C@@H](C)O)C(=O)N1)C(C)C)C(=O)N[C@@H](CO)C(=O)N[C@@H](CCC(N)=O)C(=O)N[C@@H](CCC(=O)O)C(=O)N[C@@H](CC(C)C)C(=O)N[C@@H](Cc1c[nH]cn1)C(=O)N[C@@H](CCCCN)C(=O)N[C@@H](CC(C)C)C(=O)N[C@@H](CCC(N)=O)C(=O)N[C@H](C(=O)N[C@@H](Cc1ccc(O)cc1)C(=O)N1CCC[C@H]1C(=O)N[C@@H](CCCNC(=N)N)C(=O)N[C@H](C(=O)N[C@@H](CC(N)=O)C(=O)N[C@H](C(=O)NCC(=O)N[C@@H](CO)C(=O)NCC(=O)N[C@H](C(=O)N1CCC[C@H]1C(N)=O)[C@@H](C)O)[C@@H](C)O)[C@@H](C)O)[C@@H](C)O [Calcitonin, salmon calcitonin]
[1]
  fold increase in Papp in the presence of PN159: 23-47 fold
[1]; [PN159] 0 μM, galantamine 40 mg/mL pH 5.0, calcitonin 1 mg/mL pH 3.5, PTH1-34 1 mg/mL pH 4.5, PYY3-36 1 mg/mL pH 5.0
  Papp: 0.097 ×10⁻⁶ cm/s
[1]; [PN159] 0 μM, galantamine 40 mg/mL pH 5.0, calcitonin 1 mg/mL pH 3.5, PTH1-34 1 mg/mL pH 4.5, PYY3-36 1 mg/mL pH 5.0, listed as calcitonin
  Papp: about 1×10^−7 cm/s
[1]; [PN159] 25 μM, galantamine 40 mg/mL pH 5.0, calcitonin 1 mg/mL pH 3.5, PTH1-34 1 mg/mL pH 4.5, PYY3-36 1 mg/mL pH 7.0
  Papp: 2.2 ×10⁻⁶ cm/s
[1]; [PN159] 50 μM, galantamine 40 mg/mL pH 5.0, calcitonin 1 mg/mL pH 3.5, PTH1-34 1 mg/mL pH 4.5
  Papp: 3.3 ×10⁻⁶ cm/s

## CNGRCGGKKKLKLLLKLL [PN679]
[2]; 25 μM, 1 h, FITC dextran MW 3000
  % FD3 Permeation: 0%
[2]; 100 μM, 1 h, FITC dextran MW 3000
  % FD3 Permeation: 7%
[2]; 250 μM, 1 h, FITC dextran MW 3000
  % FD3 Permeation: 8%
[2]; 500 μM, 1 h, FITC dextran MW 3000
  % FD3 Permeation: 10%
[2]; 1000 μM, 1 h, FITC dextran MW 3000
  % FD3 Permeation: 10% (10%)
[2]; [5]
  % FD3 Permeation: 10% (10%)
[2]; based on TER reduction, sample permeation and LDH release
  optimal dose: 100 µM
[3]; 25 μM, 1 h, pH 7
  % T0 TER: 70%
[3]; 100 μM, 1 h, pH 7
  % T0 TER: 7%
[3]; 250 μM, 1 h, pH 7
  % T0 TER: 2%
[3]; 500 μM, 1 h, pH 7
  % T0 TER: −2%
[3]; 1000 μM, 1 h, pH 7
  % T0 TER: −2% (−2%)
[3]; [5]
  % T0 TER: −2% (−2%)

## Maleimide-GLGSLLKKAGKLKLKQPKSKRKV-amide [PN283]
[4]; [6]
  LDH15: 0.0007
[4]; [7]
  LDH60: 0.032
[2]; 100 μM peptide
  percent permeation: 0.7%
[2]; 500 μM peptide
  percent permeation: 3.9%
[2]; 1000 μM peptide
  percent permeation: 5.2%
[2]; [6]
  % Perm 15: 1.06%
[2]; [7]
  % Perm 60: 4.99%
[2]; 60 minutes of incubation, peptide at optimal concentration
  permeation of FITC-dextran MW4000: approximately 5%
[2]; greatest TER reduction with highest permeability and no significant cytotoxicity
  Optimal Concentration: 1000 µM
[3]; 100 μM peptide
  TER reduction: 39%
[3]; 500 μM peptide
  TER reduction: 86%
[3]; 1000 μM peptide
  TER reduction: 92%
